Reference: PubChem BioAssay (NCI)
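GI50 is the concentration that inhibits growth by half. TGI marks complete inhibition of growth.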

Experiments:
Assay in all cases: growth of human tumour cells (NCI), 384-well format
[1] = tested on: 786-0 renal
[2] = tested on: A498 renal
[3] = tested on: A549 NSCLC
[4] = tested on: ACHN renal
[5] = tested on: BT-549 breast
[6] = tested on: CAKI-1 renal
[7] = tested on: CCRF-CEM leukemia
[8] = tested on: COLO 205 colon
[9] = tested on: DU-145 prostate
[10] = tested on: EKVX NSCLC
[11] = tested on: HCC-2998 colon
[12] = tested on: HCT-116 colon
[13] = tested on: HCT-15 colon
[14] = tested on: HL-60(TB) leukemia
[15] = tested on: HOP-62 NSCLC
[16] = tested on: HOP-92 NSCLC
[17] = tested on: HS 578T breast
[18] = tested on: HT29 colon
[19] = tested on: IGROV1 ovarian
[20] = tested on: K-562 leukemia
[21] = tested on: KM12 colon
[22] = tested on: LOX IMVI melanoma
[23] = tested on: M14 melanoma
[24] = tested on: MALME-3M melanoma
[25] = tested on: MCF7 breast
[26] = tested on: MDA-MB-231 breast
[27] = tested on: MDA-MB-435 melanoma
[28] = tested on: MDA-MB-468 breast
[29] = tested on: MOLT-4 leukemia
[30] = tested on: NCI-H226 lung
[31] = tested on: NCI-H23 lung
[32] = tested on: NCI-H322M lung
[33] = tested on: NCI-H460 NSCLC
[34] = tested on: NCI-H522 lung
[35] = tested on: NCI/ADR-RES ovarian
[36] = tested on: OVCAR-3 ovarian
[37] = tested on: OVCAR-4 ovarian
[38] = tested on: OVCAR-5 ovarian
[39] = tested on: PC-3 prostate
[40] = tested on: RPMI-8226 leukemia
[41] = tested on: RXF 393 renal
[42] = tested on: SF-268 CNS
[43] = tested on: SF-295 CNS
[44] = tested on: SF-539 CNS
[45] = tested on: SK-MEL-2 melanoma
[46] = tested on: SK-MEL-28 melanoma
[47] = tested on: SK-MEL-5 melanoma
[48] = tested on: SK-OV-3 ovarian
[49] = tested on: SN12C renal
[50] = tested on: SNB-19 CNS
[51] = tested on: SNB-75 CNS
[52] = tested on: SR leukemia
[53] = tested on: SW-620 colon
[54] = tested on: T-47D breast
[55] = tested on: TK-10 renal
[56] = tested on: U251 glioblastoma
[57] = tested on: UACC-257 melanoma
[58] = tested on: UACC-62 melanoma
[59] = tested on: UO-31 renal

For `Cc1ccc(/C=N/NC(=O)c2ccccc2Oc2ccccc2)o1`, the GI50 [1] was 8.44 µM, the TGI [1] was 20.8 µM and the GI50 [2] was 17.3 µM. The TGI [2] was 31.2 µM, the GI50 [3] was 17.9 µM and the TGI [3] was 31.9 µM. It also gave a GI50 [4] of 3.35 µM, a TGI [4] of 12.2 µM and a GI50 [5] of 19.5 µM. The TGI [5] was 33.7 µM, the GI50 [6] was 17.6 µM and the TGI [6] was 31.6 µM. It also gave a GI50 [7] of 2 µM, a TGI [7] of 4.13 µM and a GI50 [8] of 5.62 µM. It also gave a TGI [8] of 17.3 µM, a GI50 [9] of 6.77 µM and a TGI [9] of 19.9 µM. It also gave a GI50 [10] of 18.1 µM, a TGI [10] of 32.5 µM and a GI50 [11] of 17.8 µM. For the same molecule, the TGI [11] was 31.7 µM, the GI50 [12] was 17.7 µM and the TGI [12] was 31.6 µM. The GI50 [13] was 17.3 µM, the TGI [13] was 31.6 µM and the GI50 [14] was 19.4 µM. It also gave a TGI [14] of 33.6 µM, a GI50 [15] of 6.21 µM and a TGI [15] of 19 µM. It also gave a GI50 [16] of 4.72 µM, a TGI [16] of 16.4 µM and a GI50 [17] of 16.6 µM. For the same molecule, the TGI [17] was 30.3 µM, the GI50 [18] was 17.9 µM and the TGI [18] was 32 µM. The GI50 [19] was 2.49 µM, the TGI [19] was 10.7 µM and the GI50 [20] was 3.71 µM. The TGI [20] was 13.5 µM, the GI50 [21] was 0.829 µM and the TGI [21] was 19.5 µM. It also gave a GI50 [22] of 19.5 µM, a TGI [22] of 33.7 µM and a GI50 [23] of 5.39 µM. It also gave a TGI [23] of 18 µM, a GI50 [24] of 18.6 µM and a TGI [24] of 32.7 µM. It also gave a GI50 [25] of 4.85 µM, a TGI [25] of 17.1 µM and a GI50 [26] of 18.3 µM. It also gave a TGI [26] of 34 µM, a GI50 [27] of 18.8 µM and a TGI [27] of 32.9 µM. For the same molecule, the GI50 [28] was 1.88 µM, the TGI [28] was 3.84 µM and the GI50 [29] was 1.75 µM. For the same molecule, the TGI [29] was 3.2 µM, the GI50 [30] was 6.68 µM and the TGI [30] was 19.2 µM. The GI50 [31] was 4.32 µM, the TGI [31] was 16.1 µM and the GI50 [32] was 19.1 µM. For the same molecule, the TGI [32] was 34.5 µM, the GI50 [33] was 16.6 µM and the TGI [33] was 30.5 µM. For the same molecule, the GI50 [34] was 16.2 µM, the TGI [34] was 29.7 µM and the GI50 [35] was 17.5 µM. The TGI [35] was 31.7 µM, the GI50 [36] was 16.3 µM and the TGI [36] was 30.4 µM. For the same molecule, the GI50 [37] was 10.7 µM, the TGI [37] was 24.4 µM and the GI50 [38] was 6.64 µM. It also gave a TGI [38] of 20 µM, a GI50 [39] of 17.6 µM and a TGI [39] of 32 µM. For the same molecule, the GI50 [40] was 18.6 µM, the TGI [40] was 32.7 µM and the GI50 [41] was 16.9 µM. It also gave a TGI [41] of 30.6 µM, a GI50 [42] of 18.9 µM and a TGI [42] of 33.3 µM. The GI50 [43] was 4.52 µM, the TGI [43] was 16.4 µM and the GI50 [44] was 18.1 µM. For the same molecule, the TGI [44] was 32 µM, the GI50 [45] was 3.99 µM and the TGI [45] was 7.04 µM. It also gave a GI50 [46] of 18.6 µM, a TGI [46] of 32.6 µM and a GI50 [47] of 17.1 µM. The TGI [47] was 30.9 µM, the GI50 [48] was 16.8 µM and the TGI [48] was 31.2 µM. For the same molecule, the GI50 [49] was 4.87 µM, the TGI [49] was 17 µM and the GI50 [50] was 12.1 µM. It also gave a TGI [50] of 25 µM, a GI50 [51] of 17.1 µM and a TGI [51] of 31.1 µM. For the same molecule, the GI50 [52] was 1.73 µM, the TGI [52] was 3.24 µM and the GI50 [53] was 19.2 µM. The TGI [53] was 33.4 µM, the GI50 [54] was 16.2 µM and the TGI [54] was 29.8 µM. It also gave a GI50 [55] of 4.22 µM, a TGI [55] of 16.7 µM and a GI50 [56] of 18 µM. For the same molecule, the TGI [56] was 32 µM, the GI50 [57] was 17.3 µM and the TGI [57] was 31.2 µM. It also gave a GI50 [58] of 4.66 µM, a TGI [58] of 16.5 µM and a GI50 [59] of 3.78 µM. The TGI [59] was 13.1 µM.
